Source: article PMC5605198, “MELK is not necessary for the proliferation of basal-like breast cancer cells” (eLife, 2017)

Columns and labels:
[1] = biological target: PIM1 (Homo sapiens, UniProt P11309); assay: ICKP radiometric kinase assay; type: biochemical; conditions: for remaining activity at 1 µM: read-out: % AR (% kinase activity remaining)
[2] = biological target: NEK2a (Homo sapiens, UniProt P51955); assay: ICKP radiometric kinase assay; type: biochemical; conditions: read-out: % AR (% kinase activity remaining)
[3] = biological target: PIM3 (Homo sapiens, UniProt Q86V86); assay: ICKP radiometric kinase assay; type: biochemical; conditions: read-out: % AR (% kinase activity remaining)
[4] = biological target: PKC alpha (Homo sapiens, UniProt P17252); assay: ICKP radiometric kinase assay; type: biochemical; conditions: read-out: % AR (% kinase activity remaining)
[5] = biological target: PDGFRA (Homo sapiens, UniProt P16234); assay: ICKP radiometric kinase assay; type: biochemical; conditions: read-out: % AR (% kinase activity remaining)
[6] = biological target: HIPK1 (Homo sapiens, UniProt Q86Z02); assay: ICKP radiometric kinase assay; type: biochemical; conditions: read-out: % AR (% kinase activity remaining)
HIPK1, sequence (Q86Z02 whole entry): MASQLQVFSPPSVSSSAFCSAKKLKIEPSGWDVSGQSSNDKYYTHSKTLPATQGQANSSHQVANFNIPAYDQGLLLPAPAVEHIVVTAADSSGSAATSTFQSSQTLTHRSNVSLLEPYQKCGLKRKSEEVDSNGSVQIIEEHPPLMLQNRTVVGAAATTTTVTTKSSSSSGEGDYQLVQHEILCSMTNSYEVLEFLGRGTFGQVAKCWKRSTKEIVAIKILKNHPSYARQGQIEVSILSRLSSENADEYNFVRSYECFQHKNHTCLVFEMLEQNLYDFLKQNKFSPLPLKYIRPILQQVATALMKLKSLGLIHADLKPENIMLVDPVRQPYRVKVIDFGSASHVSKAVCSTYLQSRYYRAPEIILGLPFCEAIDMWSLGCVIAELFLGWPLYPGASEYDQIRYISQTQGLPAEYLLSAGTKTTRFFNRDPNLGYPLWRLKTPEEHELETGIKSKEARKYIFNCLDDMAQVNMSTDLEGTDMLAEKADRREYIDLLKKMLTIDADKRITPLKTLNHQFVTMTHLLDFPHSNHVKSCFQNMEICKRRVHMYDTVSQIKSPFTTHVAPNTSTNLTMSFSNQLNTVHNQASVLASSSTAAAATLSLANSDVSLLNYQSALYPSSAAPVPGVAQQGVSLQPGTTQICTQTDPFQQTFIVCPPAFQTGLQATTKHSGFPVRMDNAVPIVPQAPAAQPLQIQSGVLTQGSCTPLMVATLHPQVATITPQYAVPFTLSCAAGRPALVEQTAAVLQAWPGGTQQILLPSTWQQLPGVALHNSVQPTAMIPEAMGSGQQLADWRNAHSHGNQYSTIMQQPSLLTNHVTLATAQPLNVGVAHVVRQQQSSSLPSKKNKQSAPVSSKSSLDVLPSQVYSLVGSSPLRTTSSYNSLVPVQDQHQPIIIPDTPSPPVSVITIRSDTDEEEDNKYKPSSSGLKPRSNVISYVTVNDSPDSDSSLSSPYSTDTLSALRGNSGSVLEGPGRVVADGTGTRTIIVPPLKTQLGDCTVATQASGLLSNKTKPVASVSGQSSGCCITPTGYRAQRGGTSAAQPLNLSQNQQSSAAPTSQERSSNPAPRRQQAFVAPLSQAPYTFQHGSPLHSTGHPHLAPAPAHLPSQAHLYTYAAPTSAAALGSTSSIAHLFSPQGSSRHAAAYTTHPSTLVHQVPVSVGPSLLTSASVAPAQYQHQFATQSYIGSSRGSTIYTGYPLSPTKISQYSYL

[7] = biological target: ABL (Homo sapiens, UniProt P00519); assay: ICKP radiometric kinase assay; type: biochemical; conditions: read-out: % AR (% kinase activity remaining)
[8] = biological target: CLK2 (Homo sapiens, UniProt P49760); assay: ICKP radiometric kinase assay; type: biochemical; conditions: read-out: % AR (% kinase activity remaining)
[9] = biological target: DAPK1 (Homo sapiens, UniProt P53355); assay: ICKP radiometric kinase assay; type: biochemical; conditions: read-out: % AR (% kinase activity remaining)
[10] = biological target: IRAK4 (Homo sapiens, UniProt Q9NWZ3); assay: ICKP radiometric kinase assay; type: biochemical; conditions: read-out: % AR (% kinase activity remaining)
[11] = biological target: JNK2 (Homo sapiens, UniProt P45984); assay: ICKP radiometric kinase assay; type: biochemical; conditions: read-out: % AR (% kinase activity remaining)
[12] = biological target: PIK3CA (Homo sapiens, UniProt P42336); assay: Adapta kinase assay; conditions: Adapta assay at [ATP]=apparent Km; read-out: Biochemical IC50 PIK3CA
[13] = biological target: CAMK1 (Homo sapiens, UniProt Q14012); assay: ICKP radiometric kinase assay; type: biochemical; conditions: read-out: % AR (% kinase activity remaining)
[14] = biological target: CHK1 (Homo sapiens, UniProt O14757); assay: ICKP radiometric kinase assay; type: biochemical; conditions: read-out: % AR (% kinase activity remaining)
[15] = biological target: TAK1 (Homo sapiens, UniProt O43318); assay: ICKP radiometric kinase assay; type: biochemical; conditions: read-out: % AR (% kinase activity remaining)
[16] = biological target: CAMKK beta (Homo sapiens, UniProt Q96RR4); assay: ICKP radiometric kinase assay; type: biochemical; conditions: read-out: % AR (% kinase activity remaining)
[17] = biological target: CHK2 (Homo sapiens, UniProt O96017); assay: ICKP radiometric kinase assay; type: biochemical; conditions: read-out: % AR (% kinase activity remaining)
[18] = biological target: CDK2-Cyclin A (Homo sapiens, UniProt P24941); assay: ICKP radiometric kinase assay; type: biochemical; conditions: read-out: % AR (% kinase activity remaining)
[19] = biological target: FGF-R1 (Homo sapiens, UniProt P11362); assay: ICKP radiometric kinase assay; type: biochemical; conditions: read-out: % AR (% kinase activity remaining)
[20] = biological target: Src (Homo sapiens, UniProt P12931); assay: ICKP radiometric kinase assay; type: biochemical; conditions: read-out: % AR (% kinase activity remaining)
Src, sequence (P12931 whole entry): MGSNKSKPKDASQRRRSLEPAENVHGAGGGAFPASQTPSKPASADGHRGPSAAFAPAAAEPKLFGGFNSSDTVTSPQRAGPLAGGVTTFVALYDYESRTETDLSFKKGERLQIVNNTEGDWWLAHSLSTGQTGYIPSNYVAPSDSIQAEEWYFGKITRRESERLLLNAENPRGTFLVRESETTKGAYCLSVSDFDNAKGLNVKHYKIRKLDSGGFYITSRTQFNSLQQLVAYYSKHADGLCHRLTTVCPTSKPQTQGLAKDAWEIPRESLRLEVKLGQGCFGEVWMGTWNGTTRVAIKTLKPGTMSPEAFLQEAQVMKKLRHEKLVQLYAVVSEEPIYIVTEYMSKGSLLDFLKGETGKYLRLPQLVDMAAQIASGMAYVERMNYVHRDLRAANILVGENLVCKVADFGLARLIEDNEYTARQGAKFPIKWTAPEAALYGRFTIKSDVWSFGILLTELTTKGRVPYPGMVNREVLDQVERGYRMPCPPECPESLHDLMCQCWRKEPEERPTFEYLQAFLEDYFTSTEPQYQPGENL

[21] = biological target: CK1 gamma 2 (Homo sapiens, UniProt P78368); assay: ICKP radiometric kinase assay; type: biochemical; conditions: read-out: % AR (% kinase activity remaining)
[22] = biological target: MST4 (Homo sapiens, UniProt Q9P289); assay: ICKP radiometric kinase assay; type: biochemical; conditions: read-out: % AR (% kinase activity remaining)
[23] = biological target: DYRK2 (Homo sapiens, UniProt Q92630); assay: ICKP radiometric kinase assay; type: biochemical; conditions: read-out: % AR (% kinase activity remaining)
[24] = biological target: p38 gamma (Homo sapiens, UniProt P53778); assay: ICKP radiometric kinase assay; type: biochemical; conditions: read-out: % AR (% kinase activity remaining)
[25] = biological target: mTOR (Homo sapiens, UniProt P42345); assay: Z’-LYTE enzymatic assay; conditions: Z’-LYTE assay at [ATP]=apparent Km; read-out: Biochemical IC50 mTOR
[26] = biological target: MSK1 (Homo sapiens, UniProt O75582); assay: ICKP radiometric kinase assay; type: biochemical; conditions: read-out: % AR (% kinase activity remaining)
[27] = biological target: PIM2 (Homo sapiens, UniProt Q9P1W9); assay: ICKP radiometric kinase assay; type: biochemical; conditions: read-out: % AR (% kinase activity remaining)
[28] = biological target: Lck (Homo sapiens, UniProt P06239); assay: ICKP radiometric kinase assay; type: biochemical; conditions: read-out: % AR (% kinase activity remaining)
[29] = biological target: EPH-A2 (Homo sapiens, UniProt P29317); assay: ICKP radiometric kinase assay; type: biochemical; conditions: read-out: % AR (% kinase activity remaining)
EPH-A2, sequence (P29317 24-976): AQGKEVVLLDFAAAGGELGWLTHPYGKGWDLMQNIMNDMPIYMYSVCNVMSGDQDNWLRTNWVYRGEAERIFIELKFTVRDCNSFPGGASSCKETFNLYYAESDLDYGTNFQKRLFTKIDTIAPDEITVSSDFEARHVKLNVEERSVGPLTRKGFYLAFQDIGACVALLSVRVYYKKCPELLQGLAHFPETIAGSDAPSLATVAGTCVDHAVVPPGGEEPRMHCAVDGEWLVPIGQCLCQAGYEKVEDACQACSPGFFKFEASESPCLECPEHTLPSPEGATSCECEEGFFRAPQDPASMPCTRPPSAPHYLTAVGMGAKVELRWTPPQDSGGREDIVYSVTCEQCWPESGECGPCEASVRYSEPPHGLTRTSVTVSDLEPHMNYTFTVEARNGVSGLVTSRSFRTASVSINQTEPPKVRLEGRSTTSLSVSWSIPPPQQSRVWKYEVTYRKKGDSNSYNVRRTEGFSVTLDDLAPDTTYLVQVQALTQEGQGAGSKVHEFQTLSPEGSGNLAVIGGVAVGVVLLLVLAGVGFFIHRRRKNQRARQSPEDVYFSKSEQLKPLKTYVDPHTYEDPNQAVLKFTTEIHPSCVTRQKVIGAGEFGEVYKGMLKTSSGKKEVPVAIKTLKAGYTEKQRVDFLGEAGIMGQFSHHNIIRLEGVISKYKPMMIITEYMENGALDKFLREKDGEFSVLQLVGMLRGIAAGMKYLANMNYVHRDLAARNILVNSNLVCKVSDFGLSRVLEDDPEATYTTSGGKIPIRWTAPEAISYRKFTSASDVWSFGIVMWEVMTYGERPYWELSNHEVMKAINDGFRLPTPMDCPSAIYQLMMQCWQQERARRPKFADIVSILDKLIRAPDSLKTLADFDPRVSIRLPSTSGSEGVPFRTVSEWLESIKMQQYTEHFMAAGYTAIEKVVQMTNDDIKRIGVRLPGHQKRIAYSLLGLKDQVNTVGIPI

[30] = tested on: AMPK (hum); assay: ICKP radiometric kinase assay; type: biochemical, human; conditions: 1 μM
[31] = biological target: RIPK2 (Homo sapiens, UniProt O43353); assay: ICKP radiometric kinase assay; type: biochemical; conditions: for remaining activity at 1 µM: read-out: % AR (% kinase activity remaining)
RIPK2, sequence (O43353 whole entry, species assumed): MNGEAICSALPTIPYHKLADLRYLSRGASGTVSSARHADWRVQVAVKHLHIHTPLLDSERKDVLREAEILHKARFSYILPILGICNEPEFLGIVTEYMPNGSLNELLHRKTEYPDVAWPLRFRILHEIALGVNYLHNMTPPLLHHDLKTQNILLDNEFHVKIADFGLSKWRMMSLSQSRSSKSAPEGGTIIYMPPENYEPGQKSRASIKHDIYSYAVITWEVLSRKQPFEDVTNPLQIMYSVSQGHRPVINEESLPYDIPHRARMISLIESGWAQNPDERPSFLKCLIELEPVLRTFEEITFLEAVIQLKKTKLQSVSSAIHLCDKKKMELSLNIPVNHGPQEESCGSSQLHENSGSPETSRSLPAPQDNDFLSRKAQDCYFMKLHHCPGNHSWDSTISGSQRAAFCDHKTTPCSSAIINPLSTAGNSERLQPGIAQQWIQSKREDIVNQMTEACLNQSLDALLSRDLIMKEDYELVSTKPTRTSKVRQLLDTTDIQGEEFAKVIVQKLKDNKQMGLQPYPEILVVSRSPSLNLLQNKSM

[32] = biological target: TTBK2 (Homo sapiens, UniProt Q6IQ55); assay: ICKP radiometric kinase assay; type: biochemical; conditions: read-out: % AR (% kinase activity remaining)
[33] = biological target: SYK (Homo sapiens, UniProt P43405); assay: ICKP radiometric kinase assay; type: biochemical; conditions: read-out: % AR (% kinase activity remaining)
[34] = biological target: MINK1 (Homo sapiens, UniProt Q8N4C8); assay: ICKP radiometric kinase assay; type: biochemical; conditions: read-out: % AR (% kinase activity remaining)
MINK1, sequence (Q8N4C8 whole entry): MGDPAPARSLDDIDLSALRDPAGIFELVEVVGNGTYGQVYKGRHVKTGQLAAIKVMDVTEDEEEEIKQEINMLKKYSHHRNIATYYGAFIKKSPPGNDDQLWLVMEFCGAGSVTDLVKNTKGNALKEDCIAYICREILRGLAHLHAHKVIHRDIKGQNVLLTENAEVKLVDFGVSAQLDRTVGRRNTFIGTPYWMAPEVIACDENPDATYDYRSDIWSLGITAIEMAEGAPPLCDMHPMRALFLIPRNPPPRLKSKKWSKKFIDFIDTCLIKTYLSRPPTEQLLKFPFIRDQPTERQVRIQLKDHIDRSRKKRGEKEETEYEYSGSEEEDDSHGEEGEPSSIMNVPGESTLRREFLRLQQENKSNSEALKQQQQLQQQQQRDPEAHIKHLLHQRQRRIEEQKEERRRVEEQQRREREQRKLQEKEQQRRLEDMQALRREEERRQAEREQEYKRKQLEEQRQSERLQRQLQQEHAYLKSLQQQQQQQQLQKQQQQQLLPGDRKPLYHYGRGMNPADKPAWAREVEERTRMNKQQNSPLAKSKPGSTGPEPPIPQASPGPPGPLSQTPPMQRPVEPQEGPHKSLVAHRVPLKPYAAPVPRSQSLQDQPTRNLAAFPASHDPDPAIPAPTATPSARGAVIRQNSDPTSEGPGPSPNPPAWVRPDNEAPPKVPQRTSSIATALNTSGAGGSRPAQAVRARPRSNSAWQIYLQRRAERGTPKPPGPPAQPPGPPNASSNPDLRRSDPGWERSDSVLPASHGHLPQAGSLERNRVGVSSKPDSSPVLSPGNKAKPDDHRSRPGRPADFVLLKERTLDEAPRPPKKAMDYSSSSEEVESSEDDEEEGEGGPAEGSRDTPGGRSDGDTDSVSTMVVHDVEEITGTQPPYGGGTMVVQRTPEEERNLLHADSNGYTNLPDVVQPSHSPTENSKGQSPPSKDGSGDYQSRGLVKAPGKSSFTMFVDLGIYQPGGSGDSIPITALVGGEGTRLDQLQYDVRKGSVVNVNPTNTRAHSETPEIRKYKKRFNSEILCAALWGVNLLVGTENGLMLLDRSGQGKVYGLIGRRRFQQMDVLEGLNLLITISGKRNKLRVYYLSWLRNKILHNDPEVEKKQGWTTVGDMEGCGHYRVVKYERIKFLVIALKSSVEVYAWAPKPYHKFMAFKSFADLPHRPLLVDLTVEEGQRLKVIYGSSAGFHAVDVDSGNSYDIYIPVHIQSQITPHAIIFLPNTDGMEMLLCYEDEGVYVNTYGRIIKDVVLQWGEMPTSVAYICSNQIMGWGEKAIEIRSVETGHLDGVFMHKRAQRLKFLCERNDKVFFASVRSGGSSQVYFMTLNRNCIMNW

[35] = biological target: TBK1 (Homo sapiens, UniProt Q9UHD2); assay: ICKP radiometric kinase assay; type: biochemical; conditions: read-out: % AR (% kinase activity remaining)
[36] = biological target: JNK3 (Homo sapiens, UniProt P53779); assay: ICKP radiometric kinase assay; type: biochemical; conditions: read-out: % AR (% kinase activity remaining)
[37] = biological target: PKB alpha (Homo sapiens, UniProt P31749); assay: ICKP radiometric kinase assay; type: biochemical; conditions: read-out: % AR (% kinase activity remaining)
[38] = biological target: MST2 (Homo sapiens, UniProt Q13188); assay: ICKP radiometric kinase assay; type: biochemical; conditions: read-out: % AR (% kinase activity remaining)
[39] = biological target: ASK1 (Homo sapiens, UniProt Q99683); assay: ICKP radiometric kinase assay; type: biochemical; conditions: read-out: % AR (% kinase activity remaining)
[40] = tested on: ZR-75-1; assay: Cell proliferation assay (CellTiter-Glo); conditions: Homo sapiens, ZR-75-1, 72 h, read-out: 3-day antiproliferative IC50
[41] = biological target: HIPK3 (Homo sapiens, UniProt Q9H422); assay: ICKP radiometric kinase assay; type: biochemical; conditions: read-out: % AR (% kinase activity remaining)
[42] = biological target: ERK2 (Homo sapiens, UniProt P28482); assay: ICKP radiometric kinase assay; type: biochemical; conditions: read-out: % AR (% kinase activity remaining)
[43] = biological target: YES1 (Homo sapiens, UniProt P07947); assay: ICKP radiometric kinase assay; type: biochemical; conditions: read-out: % AR (% kinase activity remaining)

PIM1, sequence (P11309 whole entry, species assumed): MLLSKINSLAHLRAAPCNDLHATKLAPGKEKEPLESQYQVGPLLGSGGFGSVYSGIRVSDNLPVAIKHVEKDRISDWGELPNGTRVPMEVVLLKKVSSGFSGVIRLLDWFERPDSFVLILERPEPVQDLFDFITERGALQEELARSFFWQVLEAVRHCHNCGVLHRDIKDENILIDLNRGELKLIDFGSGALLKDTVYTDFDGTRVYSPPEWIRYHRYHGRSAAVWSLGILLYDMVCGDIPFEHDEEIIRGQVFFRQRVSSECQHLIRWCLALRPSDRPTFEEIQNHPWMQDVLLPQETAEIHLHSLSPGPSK

Structure (SMILES): CN(C)C[C@H]1CC[C@H](N2C(=O)NCc3cnc4ccc(-c5cc(Cl)c(O)c(Cl)c5)cc4c32)CC1 [HTH-01-091, 9-(3,5-dichloro-4-hydroxyphenyl)-1-(trans-4-((dimethylamino)methyl)cyclohexyl)-3,4-dihydropyrimido[5,4 c]quinolin-2(1H)-one]
- remaining activity at 1 µM [1]: 1%
- IC50 ([1]; radioactive filter-binding assay provided by the ICKP, read-out: Enzymatic IC50 PIM1): 60.6 nM
- remaining activity at 1 µM [2]: 100%
- remaining activity at 1 µM [3]: 1%
- remaining activity at 1 µM [4]: 79%
- remaining activity at 1 µM [5]: 35%
- remaining activity at 1 µM [6]: 24%
- remaining activity at 1 µM [7]: 70%
- remaining activity at 1 µM [8]: 11%
- remaining activity at 1 µM [9]: 15%
- remaining activity at 1 µM [10]: 85%
- remaining activity at 1 µM [11]: 100%
- IC50 [12]: 962 nM
- remaining activity at 1 µM [13]: 93%
- remaining activity at 1 µM [14]: 86%
- remaining activity at 1 µM [15]: 22%
- remaining activity at 1 µM [16]: 91%
- remaining activity at 1 µM [17]: 34%
- remaining activity at 1 µM [18]: 67%
- remaining activity at 1 µM [19]: 82%
- remaining activity at 1 µM [20]: 54%
- remaining activity at 1 µM [21]: 80%
- remaining activity at 1 µM [22]: 96%
- remaining activity at 1 µM [23]: 18%
- remaining activity at 1 µM [24]: 86%
- IC50 [25]: 632 nM
- remaining activity at 1 µM [26]: 65%
- remaining activity at 1 µM [27]: 2%
- remaining activity at 1 µM [28]: 35%
- remaining activity at 1 µM [29]: 66%
- % AR (% kinase activity remaining) [30]: 34%
- remaining activity at 1 µM [31]: 3%
- IC50 ([31]; radioactive filter-binding assay provided by the ICKP, read-out: Enzymatic IC50 RIPK2): 42.5 nM
- remaining activity at 1 µM [32]: 86%
- remaining activity at 1 µM [33]: 112%
- remaining activity at 1 µM [34]: 38%
- remaining activity at 1 µM [35]: 88%
- remaining activity at 1 µM [36]: 101%
- remaining activity at 1 µM [37]: 101%
- remaining activity at 1 µM [38]: 45%
- remaining activity at 1 µM [39]: 90%
- IC50 [40]: > 10000 nM
- remaining activity at 1 µM [41]: 25%
- remaining activity at 1 µM [42]: 93%
- remaining activity at 1 µM [43]: 32%

Structure (SMILES): CC(=O)c1cnc2ccc(-c3cc(Cl)c(O)c(Cl)c3)nc2c1N[C@H]1CC[C@H](CN(C)C)CC1 [OTSSP167]
- remaining activity at 1 µM [1]: 10%
- remaining activity at 1 µM [2]: 59%
- remaining activity at 1 µM [3]: 1%
- remaining activity at 1 µM [4]: 7%
- remaining activity at 1 µM [5]: 20%
- remaining activity at 1 µM [6]: 0%
- remaining activity at 1 µM [7]: 1%
- remaining activity at 1 µM [8]: 0%
- remaining activity at 1 µM [9]: 1%
- remaining activity at 1 µM [10]: 7%
- remaining activity at 1 µM [11]: 16%
- IC50 [12]: 66.5 nM
- remaining activity at 1 µM [13]: 15%
- remaining activity at 1 µM [14]: 11%
- remaining activity at 1 µM [15]: 1%
- remaining activity at 1 µM [16]: 2%
- remaining activity at 1 µM [17]: 1%
- remaining activity at 1 µM [18]: 2%
- remaining activity at 1 µM [19]: 4%
- remaining activity at 1 µM [20]: 5%
- remaining activity at 1 µM [21]: 10%
- remaining activity at 1 µM [22]: 5%
- remaining activity at 1 µM [23]: 1%
- remaining activity at 1 µM [24]: 12%
- IC50 [25]: 35.7 nM
- remaining activity at 1 µM [26]: 5%
- remaining activity at 1 µM [27]: 0%
- remaining activity at 1 µM [28]: 0%
- remaining activity at 1 µM [29]: 7%
- % AR (% kinase activity remaining) [30]: 1%
- remaining activity at 1 µM [31]: 4%
- remaining activity at 1 µM [32]: 91%
- remaining activity at 1 µM [33]: 7%
- remaining activity at 1 µM [34]: 2%
- remaining activity at 1 µM [35]: 6%
- remaining activity at 1 µM [36]: 13%
- remaining activity at 1 µM [37]: 28%
- remaining activity at 1 µM [38]: 7%
- remaining activity at 1 µM [39]: 7%
- IC50 [40]: 55 nM
- remaining activity at 1 µM [41]: 0%
- remaining activity at 1 µM [42]: 90%
- remaining activity at 1 µM [43]: 18%
